# Where two headings read alike, the source gives them in different places.
# How the values were obtained:
# [1] = biological target: T1, KRAS G12C/SOS/c-Raf complex (Homo sapiens, UniProt P01116, G12C); assay: KRAS G12C/SOS/c-Raf complex formation inhibitory action (TR-FRET); assay type: biochemical; conditions: one hour at room temperature, read-out: IC50 (KRAS G12C/SOS/c-Raf complex formation inhibition)
# T1 construct: Biotinylated AviTag-KRAS G12C (amino acid region 1-185, GDP)
# Outline: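 Biotin-AviTag KRAS G12C (1-185, GDP-bound) was mixed with compound (4,000 to 4 nM stock dilutions), SOS (564-1049), GST-c-Raf (51-131) and GTP in pH 7.4 HEPES/NaCl/MgCl2/Tween buffer for 1 h at room temperature. Complex formation was read by TR-FRET with Eu-streptavidin and ULight-anti-GST (ex 337 nm, em 620/665 nm).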
# [2] = tested on: ERK phosphorylation (Thr 202/Tyr 204) in NCI-H1373 cells; assay: ERK phosphorylation inhibitory action in NCI-H1373 (Cell ELISA); assay type: cell-based, Human; conditions: read-out: IC50 (ERK phosphorylation inhibition)
# Outline: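 KRAS G12C NCI-H1373 cells (2×10^4/well) were treated with compound (six points, 1,000–0.3 nM final) for 2 h. Phospho-ERK Thr202/Tyr204 was measured by in-cell ELISA with an IRDye 800CW secondary antibody. IC50 was fitted by sigmoid-Emax regression against DMSO (0%) and 1 μM trametinib (100%).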
# [3] = Homo sapiens, NCI-H1373, 2 h, NCI-H1373 cells, cultured for 2 hours, 100% = 1 μM Trametinib
# [4] = NCI-H1373 cells, cultured for 2 hours, 100% = 1 μM Trametinib
# T1 sequence (P01116 1-185 isoform P01116-2 G12C, one chain of several): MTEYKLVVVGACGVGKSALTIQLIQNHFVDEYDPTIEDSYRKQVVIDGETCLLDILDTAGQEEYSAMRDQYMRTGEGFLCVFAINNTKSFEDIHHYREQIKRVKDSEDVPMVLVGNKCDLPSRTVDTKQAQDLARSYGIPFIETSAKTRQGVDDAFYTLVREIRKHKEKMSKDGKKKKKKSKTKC
SMILES,IC50 [1] [nM],"IC50 [2, 3] [nM]","IC50 [2, 4] [nM]","IC50 ([2]; Homo sapiens, NCI-H1373, 2 h) [nM]"
"C=CC(=O)N1CC2(CCN(c3nc(OC4CCN(C5CCOCC5)CC4)nc4c(OCC(F)(F)F)c(-c5c(C)ccc6[nH]ncc56)c(C=C)cc34)CC2)C1 (single isomer, unassigned) [Ex 39]",14,3,,
C=CC(=O)N1CC2(CCN(c3nc(OC4CCN(C)CC4)nc4c(OCC)c(-c5c(C)ccc6[nH]ncc56)c(C5CC5)cc34)CC2)C1 [Ex 2],37,4.4,,
C=CC(=O)N1CC2(CCN(c3nc(OC4CCN(C)CC4)nc4c(OCC(F)F)c(-c5c(C)ccc6[nH]ncc56)c(C5CC5)cc34)CC2)C1 [Ex 3],29,3.3,,
C=CC(=O)N1CC2(CCN(c3nc(OC[C@@H]4CCCN4C)nc4c(OCC(F)F)c(-c5c(C)ccc6[nH]ncc56)c(C5CC5)cc34)CC2)C1 [Ex 4],35,2.9,,
C=CC(=O)N1CC2(CCN(c3nc(OC4CCN(CC)CC4)nc4c(OCC)c(-c5c(C)ccc6[nH]ncc56)c(C=C)cc34)CC2)C1 [Ex 7],33,8.8,,
C=CC(=O)N1CC2(CCN(c3nc(OC4CCN(C)CC4)nc4c(OCC)c(-c5c(C)ccc6[nH]ncc56)c(C=C)cc34)CC2)C1 [Ex 24],21,3.7,,
C=CC(=O)N1CC2(CCN(c3nc(OC4CCN(CCOC)CC4)nc4c(OCC(F)(F)F)c(-c5c(C)ccc6[nH]ncc56)c(C=C)cc34)CC2)C1 [Ex 26],41,3.3,,
C=CC(=O)N1CC2(CCN(c3nc(OC4CCN(C5CCOCC5)CC4)nc4c(OCC(F)(F)F)c(-c5c(C)ccc6[nH]ncc56)c(C=C)cc34)CC2)C1 [Ex 30],45,3.1,,
C=CC(=O)N1CC2(CCN(c3nc(OC[C@@H]4CCCN4C)nc4c(OC5CCC5)c(-c5c(C)ccc6[nH]ncc56)c(C=C)cc34)CC2)C1 [Example 15],52,,,11
C=CC(=O)N1CC2(CCN(c3nc(OC[C@@H]4CCCN4C)nc4c(OCC)c(-c5c(C)ccc6[nH]ncc56)c(C=C)cc34)CC2)C1 [Example 16],45,,,9.1
C=CC(=O)N1CC2(CCN(c3nc(OC4CCN(CCOCC)CC4)nc4c(OCC(F)(F)F)c(-c5c(C)ccc6[nH]ncc56)c(C=C)cc34)CC2)C1 [Example 29],49,4.2,,
C=CC(=O)N1CC2(CCN(c3nc(OC4CCN(CCOC)CC4)nc4c(OCC(F)(F)F)c(-c5c(C)ccc6[nH]ncc56)c(C5CC5)cc34)CC2)C1 [Example 35],17,,2.5,
C=CC(=O)N1CC2(CCN(c3nc(OC4CCN(CC(C)(C)O)CC4)nc4c(OCC(F)(F)F)c(-c5c(C)ccc6[nH]ncc56)c(C=C)cc34)CC2)C1 [Example 40],15,,3.1,
C=CC(=O)N1CC2(CCN(c3nc(N4CCN(C)CC4)nc4c(OCC(F)(F)F)c(-c5c(C)ccc6[nH]ncc56)c(C=C)cc34)CC2)C1 [Example 50],50,6.4,,
C=CC(=O)N1CC2(CCN(c3nc(OC4CCN(C)CC4F)nc4c(OCC(F)(F)F)c(-c5c(C)ccc6[nH]ncc56)c(C=C)cc34)CC2)C1 (stereo not drawn) [Example 52],56,6.7,,
C=CC(=O)N1CC2(CCN(c3nc(OC4CCN(Cc5ccccn5)CC4)nc4c(OCC(F)(F)F)c(-c5c(C)ccc6[nH]ncc56)c(C=C)cc34)CC2)C1 [Example 56],63,7.7,,

# The remaining compounds from weak to strong by IC50 [1], led by results:
IC50 [1] [nM],"IC50 [2, 3] [nM]","IC50 [2, 4] [nM]",SMILES,"IC50 ([2]; Homo sapiens, NCI-H1373, 2 h) [nM]"
68,210,,"C=CC(=O)N1CCN(c2nc(OC3CCN(C)CC3)nc3c(F)c(-c4c(C)ccc5[nH]ncc45)c(Cl)cc23)CC1 [Compound C, reference compound]",
48,2.5,,C=CC(=O)N1CC2(CCN(c3nc(OC4CCN(CCOC)CC4)nc4c(OCC(F)(F)F)c(-c5c(C)ccc6[nH]ncc56)c(C5CC5)cc34)CC2)C1 [Ex 25],
46,9.3,,C=CC(=O)N1CC2(CCN(c3nc(N4CC(N(C)C)C4)nc4c(OCC(F)(F)F)c(-c5c(C)ccc6[nH]ncc56)c(C=C)cc34)CC2)C1 [Example 65],
44,4.6,,C=CC(=O)N1CC2(CCN(c3nc(OC4CCN(C5COC5)CC4)nc4c(OCC(F)(F)F)c(-c5c(C)ccc6[nH]ncc56)c(C=C)cc34)CC2)C1 [Example 33],
39,5.7,,C=CC(=O)N1CC2(CCN(c3nc(OC4CCN(CCOC)CC4)nc4c(OCC(F)F)c(-c5c(C)ccc6[nH]ncc56)c(C5CC5)cc34)CC2)C1 [Example 32],
38,3.5,,C=CC(=O)N1CC2(CCN(c3nc(OC4CCN(CCCOC)CC4)nc4c(OCC(F)(F)F)c(-c5c(C)ccc6[nH]ncc56)c(C5CC5)cc34)CC2)C1 [Ex 28],
36,5.8,,C=CC(=O)N1CC2(CCN(c3nc(OC4CCN(C5COC5)CC4)nc4c(OCC)c(-c5c(C)ccc6[nH]ncc56)c(C5CC5)cc34)CC2)C1 [Example 34],
17,,2.5,C=CC(=O)N1CC2(CCN(c3nc(OC4CCN(CCOCC)CC4)nc4c(OCC(F)(F)F)c(-c5c(C)ccc6[nH]ncc56)c(C=C)cc34)CC2)C1 [Example 37],

# From patent US10774082B2, “Quinazoline compound” (Astellas Pharma Inc., priority 2017, dated 2020)
